Experimental data taken from ChEMBL document CHEMBL3351808, “Thiophenes, polyacetylenes and terpenes from the aerial parts of Eclipata prostrate” (Bioorg Med Chem, 2014).
The source made the active and inactive calls. No cut-off for these calls is given here.

Key:
[1] = target: T1, Nuclear factor NF-kappa-B complex (Homo sapiens) (UniProt Q00653+P19838+Q04206); test: Inhibition of NFkappaB (unknown origin) expressed in LPS-stimulated HEK293-NF-kappaB-luc cells assessed as luminescence signals measured by relative light units at 1 ug/mL pre-treated for 4 hrs before LPS challenge for 24 hrs by luciferase assay; type: cell-based
T1 sequence (P19838 whole entry, looked up): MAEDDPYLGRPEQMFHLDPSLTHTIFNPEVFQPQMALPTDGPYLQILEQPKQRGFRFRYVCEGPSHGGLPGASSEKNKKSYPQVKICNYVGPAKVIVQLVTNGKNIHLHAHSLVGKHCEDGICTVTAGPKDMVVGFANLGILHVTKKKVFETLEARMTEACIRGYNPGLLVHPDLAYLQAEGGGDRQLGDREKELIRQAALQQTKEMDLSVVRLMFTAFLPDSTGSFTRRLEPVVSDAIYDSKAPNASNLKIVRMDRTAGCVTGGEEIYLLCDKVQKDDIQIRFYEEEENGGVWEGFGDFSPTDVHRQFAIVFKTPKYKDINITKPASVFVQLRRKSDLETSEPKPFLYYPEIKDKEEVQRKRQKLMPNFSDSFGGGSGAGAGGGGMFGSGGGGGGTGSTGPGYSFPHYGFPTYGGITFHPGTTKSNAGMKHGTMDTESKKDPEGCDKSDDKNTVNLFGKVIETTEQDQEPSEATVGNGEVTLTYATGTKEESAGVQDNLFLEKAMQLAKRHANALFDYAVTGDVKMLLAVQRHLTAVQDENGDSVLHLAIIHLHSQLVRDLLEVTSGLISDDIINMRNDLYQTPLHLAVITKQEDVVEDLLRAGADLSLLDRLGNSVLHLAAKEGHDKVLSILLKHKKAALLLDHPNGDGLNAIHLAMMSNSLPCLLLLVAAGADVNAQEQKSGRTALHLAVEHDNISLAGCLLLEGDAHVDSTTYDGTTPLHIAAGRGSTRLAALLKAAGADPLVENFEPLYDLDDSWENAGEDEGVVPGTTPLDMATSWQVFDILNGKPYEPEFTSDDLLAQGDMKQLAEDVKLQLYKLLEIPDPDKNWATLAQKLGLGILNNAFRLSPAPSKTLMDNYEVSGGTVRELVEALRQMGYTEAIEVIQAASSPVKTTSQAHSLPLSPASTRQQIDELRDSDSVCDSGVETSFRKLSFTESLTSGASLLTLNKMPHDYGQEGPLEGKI
T1 sequence (Q00653 whole entry, looked up): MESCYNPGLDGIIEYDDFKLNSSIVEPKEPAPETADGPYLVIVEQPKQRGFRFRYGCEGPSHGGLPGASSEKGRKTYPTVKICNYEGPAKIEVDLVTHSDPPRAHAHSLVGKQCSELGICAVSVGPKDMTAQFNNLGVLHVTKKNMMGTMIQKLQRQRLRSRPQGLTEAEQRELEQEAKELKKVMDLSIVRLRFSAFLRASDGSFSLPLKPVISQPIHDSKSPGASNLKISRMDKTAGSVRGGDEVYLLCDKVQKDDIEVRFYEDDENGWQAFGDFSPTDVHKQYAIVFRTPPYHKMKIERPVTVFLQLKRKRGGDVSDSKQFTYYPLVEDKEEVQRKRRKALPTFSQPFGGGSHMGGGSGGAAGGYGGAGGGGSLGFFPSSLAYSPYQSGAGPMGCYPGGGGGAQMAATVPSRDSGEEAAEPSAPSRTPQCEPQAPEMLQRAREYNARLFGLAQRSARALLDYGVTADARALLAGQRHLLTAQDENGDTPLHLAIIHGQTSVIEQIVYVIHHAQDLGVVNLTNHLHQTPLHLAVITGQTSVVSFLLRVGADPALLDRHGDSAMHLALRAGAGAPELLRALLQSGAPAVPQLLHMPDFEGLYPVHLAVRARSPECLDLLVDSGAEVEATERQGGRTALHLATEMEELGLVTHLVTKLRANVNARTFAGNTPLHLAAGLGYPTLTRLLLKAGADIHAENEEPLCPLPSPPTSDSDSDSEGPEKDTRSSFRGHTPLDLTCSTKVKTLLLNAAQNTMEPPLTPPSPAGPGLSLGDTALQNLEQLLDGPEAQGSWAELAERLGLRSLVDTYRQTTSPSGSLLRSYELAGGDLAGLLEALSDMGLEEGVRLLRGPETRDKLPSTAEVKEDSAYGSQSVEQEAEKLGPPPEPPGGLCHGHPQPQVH
T1 sequence (Q04206 whole entry, looked up): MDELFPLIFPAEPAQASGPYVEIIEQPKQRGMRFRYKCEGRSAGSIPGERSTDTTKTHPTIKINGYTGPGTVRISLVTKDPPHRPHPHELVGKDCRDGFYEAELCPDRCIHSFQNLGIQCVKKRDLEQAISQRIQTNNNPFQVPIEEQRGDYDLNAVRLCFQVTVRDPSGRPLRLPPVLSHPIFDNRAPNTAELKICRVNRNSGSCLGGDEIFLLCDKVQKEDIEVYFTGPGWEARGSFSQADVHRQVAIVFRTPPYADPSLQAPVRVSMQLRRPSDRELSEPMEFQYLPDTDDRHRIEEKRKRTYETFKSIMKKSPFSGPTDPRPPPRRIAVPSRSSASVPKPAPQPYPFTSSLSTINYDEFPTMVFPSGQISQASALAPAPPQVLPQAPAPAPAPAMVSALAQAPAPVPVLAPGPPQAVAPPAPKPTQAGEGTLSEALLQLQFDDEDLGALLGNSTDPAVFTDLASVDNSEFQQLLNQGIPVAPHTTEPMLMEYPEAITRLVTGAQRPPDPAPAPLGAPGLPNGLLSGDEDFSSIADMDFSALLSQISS

[2] = target: T1, Nuclear factor NF-kappa-B complex (Homo sapiens); test: Inhibition of NFkappaB (unknown origin) expressed in LPS-stimulated HEK293-NF-kappaB-luc cells assessed as luminescence signals measured by relative light units at 10 ug/mL pre-treated for 4 hrs before LPS challenge for 24 hrs by luciferase assay; type: cell-based
[3] = target: T1, Nuclear factor NF-kappa-B complex (Homo sapiens); test: Inhibition of NFkappaB (unknown origin) expressed in LPS-stimulated HEK293-NF-kappaB-luc cells assessed as luminescence signals measured by relative light units at 100 ug/mL pre-treated for 4 hrs before LPS challenge for 24 hrs by luciferase assay; type: cell-based
[4] = target: T1, Nuclear factor NF-kappa-B complex (Homo sapiens); test: Inhibition of NFkappaB (unknown origin) expressed in LPS-stimulated HEK293-NF-kappaB-luc cells assessed as luminescence signals measured by relative light units at 500 ug/mL pre-treated for 4 hrs before LPS challenge for 24 hrs by luciferase assay; type: cell-based
Dipeptidyl peptidase 4 = Dipeptidyl peptidase 4 (Homo sapiens, UniProt P27487); test: Inhibition of DPP4 in human plasma using Gly-Pro-AMC substrate incubated for 20 mins by fluorometry
Chain of Dipeptidyl peptidase 4 (P27487 whole entry): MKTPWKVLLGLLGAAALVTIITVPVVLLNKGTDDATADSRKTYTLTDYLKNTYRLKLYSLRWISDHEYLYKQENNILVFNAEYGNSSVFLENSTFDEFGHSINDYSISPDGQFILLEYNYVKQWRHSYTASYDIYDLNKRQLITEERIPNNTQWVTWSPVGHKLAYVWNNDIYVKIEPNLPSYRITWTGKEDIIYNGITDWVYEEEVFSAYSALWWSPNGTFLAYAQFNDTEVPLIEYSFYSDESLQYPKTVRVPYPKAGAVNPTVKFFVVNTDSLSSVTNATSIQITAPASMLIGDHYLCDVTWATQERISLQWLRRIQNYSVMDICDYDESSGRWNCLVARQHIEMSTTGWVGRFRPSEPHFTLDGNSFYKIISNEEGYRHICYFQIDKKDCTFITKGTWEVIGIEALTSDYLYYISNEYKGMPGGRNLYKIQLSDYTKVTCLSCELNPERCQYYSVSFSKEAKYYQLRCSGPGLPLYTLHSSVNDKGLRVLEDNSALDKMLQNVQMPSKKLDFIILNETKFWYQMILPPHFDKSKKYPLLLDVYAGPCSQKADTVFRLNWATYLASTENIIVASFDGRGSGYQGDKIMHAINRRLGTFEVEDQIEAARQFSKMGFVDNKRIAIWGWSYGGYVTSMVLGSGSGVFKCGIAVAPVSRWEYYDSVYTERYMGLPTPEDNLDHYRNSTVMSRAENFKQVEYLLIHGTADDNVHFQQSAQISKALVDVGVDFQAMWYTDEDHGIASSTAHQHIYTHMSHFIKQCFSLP

CC1(C)CC[C@]2(C(=O)O[C@@H]3O[C@H](CO)[C@@H](O)[C@H](O)[C@H]3O)CC[C@]3(C)C(=CC[C@@H]4[C@@]5(C)CC[C@H](O[C@@H]6O[C@H](CO)[C@@H](O)[C@H](O)[C@H]6O)C(C)(C)[C@@H]5CC[C@]43C)[C@@H]2C1 was tested, and the Activity [1] was “inactive”, the Activity [2] was “inactive” and the Activity [3] was “inactive”. The Activity [4] was “inactive”.
With CC1(C)CC[C@]2(C(=O)O[C@@H]3O[C@H](CO)[C@@H](O)[C@H](O)[C@H]3O)[C@@H](O)C[C@]3(C)C(=CC[C@@H]4[C@@]5(C)CC[C@H](O[C@@H]6O[C@H](CO)[C@@H](O)[C@H](O)[C@H]6O)C(C)(C)[C@@H]5CC[C@]43C)[C@@H]2C1 the Activity [1] was “inactive”, the Activity [2] was “inactive” and the Activity [3] was “inactive”. The Activity [4] was “inactive”.
Work on C=CC(C)(O)CC/C=C(\C)CC/C=C(\C)CO[C@@H]1O[C@H](CO)[C@@H](O)[C@H](O)[C@H]1O (some centres not stated) yielded an RLU [1] of 0.04, an RLU [2] of 0.21 and an RLU [3] of 0.26. The RLU [4] was 0.47.
For C[C@H]1[C@H]2[C@H]3CC[C@@H]4[C@@]5(C)CC[C@H](O[C@@H]6O[C@H](CO)[C@@H](O)[C@H](O)[C@H]6O)C(C)(C)[C@@H]5CC[C@@]4(C)[C@]3(C)C[C@H](O)[C@@]2(C)CC[C@]1(C)O, the Activity [1] was “inactive”, the Activity [2] was “inactive” and the Activity [3] was “inactive”. The Activity [4] was “inactive”.
Compound CC1(C)CC[C@]2(C(=O)O[C@@H]3O[C@H](CO)[C@@H](O)[C@H](O)[C@H]3O)[C@H](O)C[C@]3(C)C(=CC[C@@H]4[C@@]5(C)CC[C@H](O[C@@H]6O[C@H](CO)[C@@H](O)[C@H](O)[C@H]6O)C(C)(C)[C@@H]5CC[C@]43C)[C@@H]2C1 has an RLU [1] of 0.08, an RLU [2] of 0.22 and an RLU [3] of 0.33. It also gave an RLU [4] of 0.5.
CC#CC#CC#C/C=C/C=C/C(CCO)O[C@@H]1O[C@H](CO)[C@@H](O)[C@H](O)[C@H]1O (some centres not stated) was tested, and the IC50 (Dipeptidyl peptidase 4) was over 100 µM.
In the case of CC(C)[C@H]1C[C@H]2O[C@@]2(C)[C@@H](O)[C@H]1O[C@@H]1O[C@H](COC(=O)/C=C/c2ccc(O)c(O)c2)[C@@H](O)[C@H](O)[C@H]1O (relative stereo), the Activity [1] is reported as “inactive”, the Activity [2] is reported as “inactive” and the Activity [3] is reported as “inactive”. The Activity [4] was “inactive”.
CC(C)[C@H]1C[C@H]2O[C@@]2(C)[C@@H](O)[C@H]1O[C@@H]1O[C@H](CO)[C@@H](O)[C@H](O)[C@H]1O (relative stereo) was tested, and the Activity [1] was “inactive”, the Activity [2] was “inactive” and the Activity [3] was “inactive”. For the same compound, the Activity [4] was “inactive”.
In the case of C=C(C)[C@@H]1CC[C@]2(C(=O)O[C@@H]3O[C@H](CO)[C@@H](O)[C@H](O)[C@H]3O)CC[C@]3(C)[C@H](CC[C@@H]4[C@@]5(C)CC[C@H](O[C@@H]6O[C@H](CO)[C@@H](O)[C@H](O)[C@H]6O)C(C)(C)[C@@H]5CC[C@]43C)[C@@H]12, the Activity [1] is reported as “inactive”, the Activity [2] is reported as “inactive” and the Activity [3] is reported as “inactive”. For the same compound, the Activity [4] was “inactive”.
With CC1(C)CC[C@]2(C(=O)O[C@@H]3O[C@H](CO)[C@@H](O)[C@H](O)[C@H]3O)[C@H](O)C[C@]3(C)C(=CC[C@@H]4[C@@]5(C)CC[C@H](O[C@@H]6O[C@H](CO)[C@@H](O)[C@H](O)[C@H]6O[C@@H]6O[C@H](CO)[C@@H](O)[C@H](O)[C@H]6O)C(C)(C)[C@@H]5CC[C@]43C)[C@@H]2C1 the Activity [1] was “inactive”, the Activity [2] was “inactive” and the Activity [3] was “inactive”. The Activity [4] was “inactive”.
Compound CC1(C)CC[C@]2(C(=O)O[C@@H]3O[C@H](CO)[C@@H](O)[C@H](O)[C@H]3O)CC[C@]3(C)C(=CC[C@@H]4[C@@]5(C)CC[C@H](O[C@@H]6O[C@H](CO)[C@@H](O)[C@H](O)[C@H]6O[C@@H]6O[C@H](CO)[C@@H](O)[C@H](O)[C@H]6O)C(C)(C)[C@@H]5CC[C@]43C)[C@@H]2C1 has an RLU [1] of 0.09, an RLU [2] of 0.23 and an RLU [3] of 0.47. The RLU [4] was 0.59.
Compound CC1(C)CC[C@]2(C(=O)O[C@@H]3O[C@H](CO)[C@@H](O)[C@H](O)[C@H]3O)[C@H](O)C[C@]3(C)C(=CC[C@@H]4[C@@]5(C)CC[C@H](O[C@@H]6O[C@H](CO)[C@@H](O)[C@H](O)[C@H]6OS(=O)(=O)O)C(C)(C)[C@@H]5CC[C@]43C)[C@@H]2C1 has an RLU [1] of -0.01, an RLU [2] of 0.16 and an RLU [3] of 0.23. The RLU [4] was 0.07.
CC1(C)[C@@H](O[C@@H]2O[C@H](CO)[C@@H](O)[C@H](O)[C@H]2O)CC[C@]2(C)[C@H]3CC=C4[C@@H]5C[C@](C)(CO)CC[C@]5(C)[C@@H](O)C[C@@]4(C)[C@]3(C)CC[C@@H]12 was tested, and the Activity [1] was “inactive”, the Activity [2] was “inactive” and the Activity [3] was “inactive”. The Activity [4] was “inactive”.
CC1(C)C=C2[C@H]3CC[C@@H]4[C@@]5(C)CC[C@H](O[C@@H]6O[C@H](CO)[C@@H](O)[C@H](O)[C@H]6O[C@@H]6O[C@H](CO)[C@@H](O)[C@H](O)[C@H]6O)C(C)(C)[C@@H]5CC[C@@]4(C)[C@]3(C)CC[C@@]2(C(=O)O[C@@H]2O[C@H](CO)[C@@H](O)[C@H](O)[C@H]2O)CC1 gave an RLU [1] of 0.01, an RLU [2] of 0.06 and an RLU [3] of 0.49. It also gave an RLU [4] of 0.72.
Compound C=CC(O)C(/C=C/C#CC#CC#CC)O[C@@H]1O[C@H](CO)[C@@H](O)[C@H](O)[C@H]1O (some centres not stated) has an IC50 (Dipeptidyl peptidase 4) of over 100 µM.
With C[C@H]1[C@H]2[C@H]3CC[C@@H]4[C@@]5(C)CC[C@H](O[C@@H]6O[C@H](CO)[C@@H](O)[C@H](O)[C@H]6O)C(C)(C)[C@@H]5CC[C@@]4(C)[C@]3(C)CC[C@@]2(CO)CC[C@]1(C)O the RLU [1] was 0.18, the RLU [2] was 0.24 and the RLU [3] was 0.47. The RLU [4] was 0.5.
C[C@]12CCC(=O)C=C1CC[C@@H]1[C@@H]2[C@@H](O)C[C@@]2(C)[C@H]1CC[C@]2(O)C(=O)CO showed an RLU [1] of 0.15, an RLU [2] of 0.32 and an RLU [3] of 0.45. The RLU [4] was 0.64.
